Target: T1, GSK3β (Homo sapiens, UniProt P49841)
T1 construct: purchased Upstate 14-306
Experiment: In vitro biochemical GSK3β inhibition assay (pyruvate kinase/lactate dehydrogenase-coupled, NADH fluorescence)
Settings: 5 nM GSK3β, 40 μM GSK3β substrate GSM, 50 μM ATP, 30° C. for 2 hours
Description: The inhibitory activity of active substances is determined in a biochemical assay. The ingredients required for this purpose are mixed in a black 384-well microtitre plate with transparent base (from Greiner, catalogue number 781092). The ingredients required for each well of the 384-well microtitre plate are 5 nM GSK3β (from Upstate, catalogue number 14-306), 40 μM GSK3β substrate GSM (sequence H-RRRPASVPPSPSLSRHS-(pS)-HQRR, from Upstate, catalogue number 2-533), 30 μM nicotinamide adenine dinucleotide NADH (Roche Diagnostics, catalogue number 10107735), 50 μM adenosine triphosphate ATP (from Sigma, catalogue number A7966), 2 mM phosphoenolpyruvate (from Roche, catalogue number 128112), and approx. 1 U/ml pyruvate kinase and approx. 1 U/ml lactate dehydrogenase, which are present together in a stock formulation (from Roche, catalogue number 10737291001, suspension with approx. 450 U/ml pyruvate kinase activity, approx. 450 U/ml lactate dehydrogenase activity in […] ammonium sulphate solution pH 6). 1 unit of pyruvate kinase converts 1 μmol of phosphoenolpyruvate to pyruvate per minute at pH 7.6 and 37° C., and 1 unit of lactate dehydrogenase reduces 1 μmol of pyruvate to lactate per minute at pH 7.5 and 37° C. The reaction buffer required, in which the biochemical reaction proceeds, consists of 50 mM Trizma hydrochloride Tris-HCl pH: 7.5 (from Sigma, catalogue number T3253), 5 mM magnesium chloride MgCl2 (from Sigma, catalogue number M8266), 0.2 mM DL-dithiothreitol DTT (from Sigma, catalogue number D9779), 2 mM ethylenediamine ether tetraacid EDTA (from Sigma, catalogue number E6758), 0.01% Triton X-100 (from Sigma, catalogue number T8787) and 0.05% bovine serum albumin BSA (from Sigma, catalogue number B4287).
Active substances are dissolved in dimethyl sulphoxide DMSO (from Sigma, catalogue number D8418) in a concentration of 10 mM. Active substances are added in serial concentrations of 10 μM, 1 μM, 0.1 μM, 0.01 μM, 0.001 μM, 0.0001 μM, 0.00001 μM, 0.000001 μM to the mixtures of the biochemical reaction. As control, dimethyl sulphoxide is added instead of substance in a final concentration of 0.1%.
The reaction is incubated at 30° C. for 2 hours and then the resulting fluorescence is measured in a Tecan Safire-XFLUOR4 instrument, version V4.50 (serial number 12901300283) with the specifications: measurement mode—fluorescence measured from below, excitation wavelength 340 nm, emission wavelength 465 nm, excitation slit width 5 nm, emission slit width 5 nm, gain mode 120, delay 0 μs, number of light flashes per measurement 3, and an integration time of 40 μs.
The activity of the active substances is calculated in relation to these 0% and 100%.

T1 sequence (P49841 whole entry): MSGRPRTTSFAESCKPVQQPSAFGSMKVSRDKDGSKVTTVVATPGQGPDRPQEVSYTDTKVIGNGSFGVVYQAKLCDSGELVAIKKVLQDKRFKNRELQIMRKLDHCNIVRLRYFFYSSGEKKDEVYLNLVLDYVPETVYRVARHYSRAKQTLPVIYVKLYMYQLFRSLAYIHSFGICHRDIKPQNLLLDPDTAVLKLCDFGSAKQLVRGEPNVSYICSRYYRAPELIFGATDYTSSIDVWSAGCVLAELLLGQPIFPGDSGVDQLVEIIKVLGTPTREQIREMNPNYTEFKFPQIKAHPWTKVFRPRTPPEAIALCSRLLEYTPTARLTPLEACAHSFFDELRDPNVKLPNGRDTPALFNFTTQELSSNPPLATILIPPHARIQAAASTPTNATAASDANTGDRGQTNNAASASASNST

Row | IC50 [nM] | SMILES
1 | 12 | N#Cc1ccc(NC2CCCN(c3nc(-c4ccc(Cl)cc4Cl)ccc3C#N)C2)nc1 (stereo not shown) [Example 7, 2-{3-[(5-Cyanopyridin-2-yl)amino]piperidin-1-yl}-6-(2,4-dichlorophenyl)pyridine-3-carbonitrile]
2 | 5.04 | N#Cc1ccc(-c2ccc(Cl)cc2Cl)nc1N1CCCC(Nc2ccc(C(=O)C(F)(F)F)c(N)n2)C1 (single isomer, unassigned) [Example Ent-B-2, 2-(3-{[6-amino-5-(trifluoroacetyl)pyridin-2-yl]amino}piperidin-1-yl)-6-(2,4-dichlorophenyl)pyridine-3-carbonitrile]
3 | 6.3 | COc1ccccc1-c1ccc(C(=O)N2CCN(C(C)C)CC2)c(N2CCCC(Nc3ccc(C(=O)C(F)(F)F)c(N)n3)C2)n1 (single isomer, unassigned) [Example Ent-B-12, 1-[2-amino-6-({1-[6-(2-methoxyphenyl)-3-{[4-(propan-2-yl)-piperazin-1-yl]carbonyl}pyridin-2-yl]piperidin-3-yl}amino)pyridin-3-yl]-2,2,2-trifluoroethanone]
4 | 26 | N#Cc1ccc(NC2CCCN(c3nc(-c4ccc(Cl)cc4Cl)ccc3C#N)C2)nc1N (stereo not shown) [Example 6, 2-Amino-6-({1-[3-cyano-6-(2,4-dichlorophenyl)pyridin-2-yl]piperidin-3-yl}amino)-pyridine-3-carbonitrile]
